pIC50: −log10 of the molar value.
target: T1, HCV polymerase (NS5B570n-Con1) (Hepatitis C virus genotype 1b, UniProt Q9WMX2); experiment: biochemical; design: species or system HCV Con1 strain; conditions: IC50 HCV NS5B RNA Polymerase Assay (values with asterisk), values with asterisk: cIRES RNA template, 3 nM NS5B570n-Con1
T1 construct: contains a 21 amino acid deletion at the C-terminus relative to the full-length HCV polymerase; 6-histidine (N); made in house; host or cells: E. coli strain BL21(DE) pLysS (pET17b)
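Further: recombinant His-tagged enzyme from E. coli, radiolabeled nucleotide incorporation into acid-insoluble RNA read by scintillation after filtration, no-enzyme background subtracted, activity relative to positive control.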

Point of comparison: COc1c(/C=C/c2ccc(NS(C)(=O)=O)cn2)cc(-c2ccc[nH]c2=O)cc1C1(C(F)F)CC1 [I-258, N-(6-{(E)-2-[3-(1-Difluoromethyl-cyclopropyl)-2-methoxy-5-(2-oxo-1,2-dihydro-pyridin-3-yl)-phenyl]-vinyl}-pyridin-3-yl)-methanesulfonamide], pIC50 9.00. Against it:
- COc1c(/C=C/c2ccc(NS(=O)(=O)CCCN3CCOCC3)cc2)cc(-c2cc(F)c[nH]c2=O)cc1C(C)(C)C [I-231, 3-Morpholin-4-yl-propane-1-sulfonic acid (4-{(E)-2-[3-tert-butyl-5-(5-fluoro-2-oxo-1,2-dihydro-pyridin-3-yl)-2-methoxy-phenyl]-vinyl}-phenyl)-amide] — 0.60 log units lower, 8.40
- COc1c(/C=C/c2ccc(NS(=O)(=O)CCN3CCCC3)cc2)cc(-c2cc(F)c[nH]c2=O)cc1C(C)(C)C [I-232, 2-Pyrrolidin-1-yl-ethanesulfonic acid (4-{(E)-2-[3-tert-butyl-5-(5-fluoro-2-oxo-1,2-dihydro-pyridin-3-yl)-2-methoxy-phenyl]-vinyl}-phenyl)-amide] — the same, 9.00
- COc1c(/C=C/c2ccc(NS(=O)(=O)CCN3CCOCC3)cc2)cc(-c2cc(F)c[nH]c2=O)cc1C(C)(C)C [I-233] — the same, 9.00
- COc1c(/C=C/c2ccc(NS(=O)(=O)CCCN3CCCC3)cc2)cc(-c2ccc[nH]c2=O)cc1C(C)(C)C [I-234, 3-Pyrrolidin-1-yl-propane-1-sulfonic acid (4-{(E)-2-[3-tert-butyl-2-methoxy-5-(2-oxo-1,2-dihydro-pyridin-3-yl)-phenyl]-vinyl}-phenyl)-amide] — 0.60 log units lower, 8.40
- COc1c(/C=C/c2ccc(NS(=O)(=O)CCCN3CCCC3)cc2)cc(-c2ccc(C)[nH]c2=O)cc1C(C)(C)C [I-235, 3-Pyrrolidin-1-yl-propane-1-sulfonic acid (4-{(E)-2-[3-tert-butyl-2-methoxy-5-(6-methyl-2-oxo-1,2-dihydro-pyridin-3-yl)-phenyl]-vinyl}-phenyl)-amide] — 1.08 log units lower, 7.92
- COc1c(/C=C/c2ccc(NS(C)(=O)=O)cc2F)cc(-c2cc(F)c[nH]c2=O)cc1C(C)(C)C [I-236, N-(4-{(E)-2-[3-tert-Butyl-5-(5-fluoro-2-oxo-1,2-dihydro-pyridin-3-yl)-2-methoxy-phenyl]-vinyl}-3-fluoro-phenyl)-methanesulfonamide] — the same, 9.00
- COc1c(/C=C/c2ccccc2F)cc(-c2ccc[nH]c2=O)cc1C(C)(C)C [I-237, 3-{3-tert-Butyl-5-[(E)-2-(2-fluoro-phenyl)-vinyl]-4-methoxy-phenyl}-1H-pyridin-2-one] — 1.11 log units lower, 7.89
- COc1c(/C=C/c2ccccc2C#N)cc(-c2ccc[nH]c2=O)cc1C(C)(C)C [I-238, 2-{(E)-2-[3-tert-Butyl-2-methoxy-5-(2-oxo-1,2-dihydro-pyridin-3-yl)-phenyl]-vinyl}-benzonitrile] — 0.30 log units lower, 8.70
- COc1c(/C=C/c2ccccc2C(F)(F)F)cc(-c2ccc[nH]c2=O)cc1C(C)(C)C [I-239, 3-{3-tert-Butyl-4-methoxy-5-[(E)-2-(2-trifluoromethyl-phenyl)-vinyl]-phenyl}-1H-pyridin-2-one] — 0.90 log units lower, 8.10
- COc1c(/C=C/c2ccncc2)cc(-c2ccc[nH]c2=O)cc1C(C)(C)C [I-240, 3-[3-tert-Butyl-4-methoxy-5-((E)-2-pyridin-4-yl-vinyl)-phenyl]-1H-pyridin-2-one] — 0.70 log units lower, 8.30
- COc1c(/C=C/c2ccccn2)cc(-c2ccc[nH]c2=O)cc1C(C)(C)C [I-241, 3-[3-tert-Butyl-4-methoxy-5-((E)-2-pyridin-2-yl-vinyl)-phenyl]-1H-pyridin-2-one] — 0.48 log units lower, 8.52
- COC(=O)c1ccccc1/C=C/c1cc(-c2ccc[nH]c2=O)cc(C(C)(C)C)c1OC [I-242, 2-{(E)-2-[3-tert-Butyl-2-methoxy-5-(2-oxo-1,2-dihydro-pyridin-3-yl)-phenyl]-vinyl}-benzoic acid methyl ester] — 0.30 log units lower, 8.70
- COc1c(/C=C/c2ccccc2S(C)(=O)=O)cc(-c2ccc[nH]c2=O)cc1C(C)(C)C [I-244, 3-{3-tert-Butyl-5-[(E)-2-(2-methanesulfonyl-phenyl)-vinyl]-4-methoxy-phenyl}-1H-pyridin-2-one] — the same, 9.00
- COc1c(/C=C/c2ccncc2C#N)cc(-c2ccc[nH]c2=O)cc1C(C)(C)C [I-245, 4-{(L)-2-[3-tert-Butyl-2-methoxy-5-(2-oxo-1,2-dihydro-pyridin-3-yl)-phenyl]-vinyl}-nicotinonitrile] — the same, 9.00
- COc1c(/C=C/c2ccccc2C(=O)O)cc(-c2ccc[nH]c2=O)cc1C(C)(C)C [I-246, 2-{(E)-2-[3-tert-Butyl-2-methoxy-5-(2-oxo-1,2-dihydro-pyridin-3-yl)-phenyl]-vinyl}-benzoic acid] — the same, 9.00
- CCOc1c(/C=C/c2ccc(NS(C)(=O)=O)cc2)cc(-c2ccc[nH]c2=O)cc1C(C)(C)C [I-249] — 1.04 log units lower, 7.96
- COCCOc1c(/C=C/c2ccc(NS(C)(=O)=O)cc2)cc(-c2ccc[nH]c2=O)cc1C(C)(C)C [I-250] — 1.36 log units lower, 7.64
- COc1c(NC(=O)c2ccc(NCC(F)(F)F)c(F)c2)cc(-c2ccc[nH]c2=O)cc1C(C)(C)C [I-251, N-[3-tert-Butyl-2-methoxy-5-(2-oxo-1,2-dihydro-pyridin-3-yl)-phenyl]-3-fluoro-4-(2,2,2-trifluoro-ethylamino)-benzamide] — 0.30 log units lower, 8.70
- COc1c(/C=C/c2ccc(NS(C)(=O)=O)cn2)cc(-c2cc(Cl)c[nH]c2=O)cc1C(C)(C)C [I-261] — 0.48 log units lower, 8.52
- COc1c(/C=C/c2ccc(NS(C)(=O)=O)cc2)cc(-c2cc(Cl)c[nH]c2=O)cc1C1(Cl)CC1 [I-264] — 0.70 log units lower, 8.30
- COc1c(/C=C/c2ccc(NS(C)(=O)=O)cc2)cc(-c2ccc(C)[nH]c2=O)cc1C1(Cl)CC1 [I-265] — 0.70 log units lower, 8.30
- COc1c(/C=C/c2ccc(NS(C)(=O)=O)cc2)cc(-c2ccc[nH]c2=O)cc1C1(OC)CC1 [I-266, N-(4-{(E)-2-[3-(1-methoxycyclopropyl)-5-(2-oxo-1,2-dihydropyridin-3-yl)-2-methoxyphenyl]vinyl}-phenyl)methanesulfonamide] — 0.48 log units lower, 8.52
- COc1c(/C=C/c2ccc(NS(C)(=O)=O)cc2)cc(-c2cc(F)c[nH]c2=O)cc1C1(C(F)F)CC1 [I-269, N-(4-{(E)-2-[3-(1-Difluoromethyl-cyclopropyl)-5-(5-fluoro-2-oxo-1,2-dihydro-pyridin-3-yl)-2-methoxy-phenyl]-vinyl}-phenyl)-methanesulfonamide] — 0.48 log units lower, 8.52
- CS(=O)(=O)Nc1ccc(/C=C/c2cc(-c3ccc[nH]c3=O)cc(C3(F)CCC3)c2)cc1 [I-271, N-(4-{(E)-2-[3-(1-Fluoro-cyclobutyl)-5-(2-oxo-1,2-dihydro-pyridin-3-yl)-phenyl]-vinyl}-phenyl)-methanesulfonamide] — 0.60 log units lower, 8.40
- CC(C)(CO)c1cc(/C=C/c2ccc(NS(C)(=O)=O)cc2)cc(-c2ccc[nH]c2=O)c1 [I-272, N-(4-{(E)-2-[3-(2-Hydroxy-1,1-dimethyl-ethyl)-5-(2-oxo-1,2-dihydro-pyridin-3-yl)-phenyl]-vinyl}-phenyl)-methanesulfonamide] — 0.78 log units lower, 8.22

same assay, conditions: IC50 HCV NS5B RNA Polymerase Assay, values without asterisk; 20 nM NS5B570n-Con1 enzyme, 20 nM cIRES RNA template

Point of comparison: COc1c(NC(=O)c2ccc(O)cc2F)cc(-c2ccc[nH]c2=O)cc1C(C)(C)C [I-252, N-[3-tert-Butyl-2-methoxy-5-(2-oxo-1,2-dihydro-pyridin-3-yl)-phenyl]-2-fluoro-4-hydroxy-benzamide], pIC50 7.42. Against it:
- COc1c(NC(=O)c2ccc(N)nc2)cc(-c2ccc[nH]c2=O)cc1C(C)(C)C [I-247, 6-Amino-N-[3-tert-butyl-2-methoxy-5-(2-oxo-1,2-dihydro-pyridin-3-yl)-phenyl]-nicotinamide] — 0.24 log units higher, 7.66
- COc1c(NC(=O)c2ccc(NCC(F)(F)F)nn2)cc(-c2ccc[nH]c2=O)cc1C(C)(C)C [I-248, 6-(2,2,2-Trifluoro-ethylamino)-pyridazine-3-carboxylic acid [3-tert-butyl-2-methoxy-5-(2-oxo-1,2-dihydro-pyridin-3-yl)-phenyl]-amide] — 0.30 log units higher, 7.72
- COc1c(NC(=O)c2ccc(NCC(F)(F)F)cc2)cc(-c2ccc[nH]c2=O)cc1C(C)(C)C [I-253, N-[3-tert-Butyl-2-methoxy-5-(2-oxo-1,2-dihydro-pyridin-3-yl)-phenyl]-4-(2,2,2-trifluoro-ethylamino)-benzamide] — 1.28 log units higher, 8.70
- COCCNc1ccc(C(=O)Nc2cc(-c3ccc[nH]c3=O)cc(C(C)(C)C)c2OC)cn1 [I-254, N-[3-tert-Butyl-2-methoxy-5-(2-oxo-1,2-dihydro-pyridin-3-yl)-phenyl]-6-(2-methoxy-ethylamino)-nicotinamide] — 0.57 log units lower, 6.85
- COc1c(NC(=O)c2ccc(NC3CC3)nc2)cc(-c2ccc[nH]c2=O)cc1C(C)(C)C [I-255, N-[3-tert-Butyl-2-methoxy-5-(2-oxo-1,2-dihydro-pyridin-3-yl)-phenyl]-6-cyclopropylamino-nicotinamide] — 0.27 log units lower, 7.15
- COc1c(NC(=O)c2ccc(NC3CC3)cc2)cc(-c2ccc[nH]c2=O)cc1C(C)(C)C [I-256, N-[3-tert-Butyl-2-methoxy-5-(2-oxo-1,2-dihydro-pyridin-3-yl)-phenyl]4-cyclopropylamino-benzamide] — 0.30 log units higher, 7.72
- COCCNc1ccc(C(=O)Nc2cc(-c3ccc[nH]c3=O)cc(C(C)(C)C)c2OC)cc1 [I-257, N-[3-tert-Butyl-2-methoxy-5-(2-oxo-1,2-dihydro-pyridin-3-yl)-phenyl]-4-(2-methoxy-ethylamino)-benzamide] — 0.68 log units lower, 6.74
- COc1c(C(=O)Nc2cccc(NS(C)(=O)=O)c2)cc(-c2ccc[nH]c2=O)cc1C(C)(C)C [I-259, 3-tert-Butyl-N-(3-methanesulfonylamino-phenyl)-2-methoxy-5-(2-oxo-1,2-dihydro-pyridin-3-yl)-benzamide] — 0.51 log units lower, 6.91
- COc1c(C(=O)NC2CCC(NS(C)(=O)=O)CC2)cc(-c2ccc[nH]c2=O)cc1C(C)(C)C (stereo not drawn) [I-260, 3-tert-Butyl-N-(4-methanesulfonylamino-cyclohexyl)-2-methoxy-5-(2-oxo-1,2-dihydro-pyridin-3-yl)-benzamide] — within 0.2 log units, 7.46

From US8273773B2 (priority 2008, dated 2012)
